Among the data in ChEMBL document CHEMBL1141197, “Interaction of papain-like cysteine proteases with dipeptide-derived nitriles” (J Med Chem, 2005) are Ki values, retold here.

Where only a bound is given, the exact number is not on record here.

The term Ki denotes the dissociation constant of the complex between target and ligand, obtained from inhibition or displacement. Read a high Ki as a looser hold on the target.

For assay [1], the target named is Procathepsin L (Bos taurus, UniProt P25975). The assay can be described thus: Inhibitory activity against bovine cathepsin L using Z-Phe-Arg-NHMec substrate.
The target in assay [2] is Procathepsin L (Homo sapiens, UniProt P07711). The assay can be described thus: Inhibitory activity against human cathepsin L using Z-Phe-Arg-NHMec substrate.
Another assay concerns the target T1, Cathepsin K (Homo sapiens, UniProt P43235).
T1 sequence (P43235 whole entry): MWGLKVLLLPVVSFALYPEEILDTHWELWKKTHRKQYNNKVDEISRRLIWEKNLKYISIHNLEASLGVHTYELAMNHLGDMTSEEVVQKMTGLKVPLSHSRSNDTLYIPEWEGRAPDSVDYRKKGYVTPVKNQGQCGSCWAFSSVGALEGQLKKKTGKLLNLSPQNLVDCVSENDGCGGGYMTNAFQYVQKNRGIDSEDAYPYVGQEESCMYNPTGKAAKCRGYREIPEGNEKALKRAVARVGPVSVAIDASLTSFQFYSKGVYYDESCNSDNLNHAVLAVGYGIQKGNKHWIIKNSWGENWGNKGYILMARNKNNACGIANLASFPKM
The assay can be described thus: Inhibitory activity against human cathepsin K using Z-Leu-Arg-NHMec substrate.

The next assay addresses T2, Papain (Carica papaya, UniProt P00784).
T2 sequence (P00784 whole entry): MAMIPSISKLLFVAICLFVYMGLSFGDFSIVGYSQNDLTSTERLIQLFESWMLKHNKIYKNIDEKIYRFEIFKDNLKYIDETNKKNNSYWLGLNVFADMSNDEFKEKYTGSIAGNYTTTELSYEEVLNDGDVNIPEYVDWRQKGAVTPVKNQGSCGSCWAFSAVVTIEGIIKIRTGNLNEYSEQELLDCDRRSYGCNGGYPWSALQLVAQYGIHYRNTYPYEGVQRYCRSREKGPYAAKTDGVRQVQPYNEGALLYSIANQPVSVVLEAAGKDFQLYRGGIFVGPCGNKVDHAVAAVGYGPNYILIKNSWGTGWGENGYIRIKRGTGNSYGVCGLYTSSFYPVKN
Kind of assay: Inhibitory activity against papain using Z-Phe-Arg-NHNp substrate.

The target of the next assay is Cathepsin S (Homo sapiens, UniProt P25774). Kind of assay: Inhibitory activity against human cathepsin S using Z-Val-Val-Arg-NHMec substrate.
Sequence of Cathepsin S (P25774 whole entry): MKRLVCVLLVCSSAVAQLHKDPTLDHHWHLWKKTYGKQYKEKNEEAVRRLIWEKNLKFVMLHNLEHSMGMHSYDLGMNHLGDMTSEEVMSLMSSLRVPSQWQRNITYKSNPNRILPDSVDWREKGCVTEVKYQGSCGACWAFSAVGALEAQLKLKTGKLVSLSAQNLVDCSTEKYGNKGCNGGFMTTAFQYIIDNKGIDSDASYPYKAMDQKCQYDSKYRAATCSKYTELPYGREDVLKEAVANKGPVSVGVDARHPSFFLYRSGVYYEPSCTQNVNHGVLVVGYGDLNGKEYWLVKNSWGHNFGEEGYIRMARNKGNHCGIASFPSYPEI

Sequence of Procathepsin L (Bos taurus, UniProt P25975) (P25975 whole entry): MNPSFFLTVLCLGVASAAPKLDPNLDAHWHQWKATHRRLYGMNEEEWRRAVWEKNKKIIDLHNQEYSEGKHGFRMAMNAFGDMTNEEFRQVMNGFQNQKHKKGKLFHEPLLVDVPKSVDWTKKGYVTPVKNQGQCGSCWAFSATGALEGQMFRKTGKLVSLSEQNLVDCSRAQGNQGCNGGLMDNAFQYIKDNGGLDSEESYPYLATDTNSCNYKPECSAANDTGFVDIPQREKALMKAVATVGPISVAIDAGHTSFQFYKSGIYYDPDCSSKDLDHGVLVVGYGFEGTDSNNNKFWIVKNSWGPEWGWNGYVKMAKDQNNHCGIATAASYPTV
Sequence of Procathepsin L (Homo sapiens, UniProt P07711) (P07711 whole entry): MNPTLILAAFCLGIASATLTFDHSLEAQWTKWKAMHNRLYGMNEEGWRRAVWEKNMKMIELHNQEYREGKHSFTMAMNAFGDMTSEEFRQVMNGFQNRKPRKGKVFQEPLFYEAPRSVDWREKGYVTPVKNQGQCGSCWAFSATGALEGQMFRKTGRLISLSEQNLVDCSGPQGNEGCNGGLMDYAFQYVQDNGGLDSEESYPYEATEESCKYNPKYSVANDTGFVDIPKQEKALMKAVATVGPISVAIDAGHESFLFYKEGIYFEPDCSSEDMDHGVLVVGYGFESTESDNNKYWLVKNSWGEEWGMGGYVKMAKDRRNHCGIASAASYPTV

As to `CC(C)(C)OC(=O)N[C@@H](Cc1csc2ccccc12)C(=O)NCC#N`, the Ki on Procathepsin L [1] was found to be 0.32 µM; at Procathepsin L [2], 0.29 µM; on Cathepsin K it was 34 µM; on Papain, 7.4 µM; at Cathepsin S it was 0.3 µM.
Turning to `N#CCNC(=O)[C@H](Cc1ccccc1)NC(=O)OCc1ccccc1`, the Ki turned out to be 0.18 µM at Procathepsin L [1]; 0.23 µM on Procathepsin L [2]; 0.26 µM at Cathepsin K; 0.36 µM at Papain; 0.51 µM at Cathepsin S.
As to `CC(C)(C)OC(=O)N[C@@H](Cc1c[nH]c2ccccc12)C(=O)NCC#N`, the Ki was determined as 0.35 µM on Procathepsin L [1]; 0.43 µM at Procathepsin L [2]; 29 µM at Cathepsin K; 7.6 µM on Papain; 0.24 µM on Cathepsin S.
On to `CC(C)(C)OC(=O)N1CCC[C@H]1C(=O)NCC#N`, for which the Ki on Procathepsin L [1] is more than 100 µM; at Cathepsin K, more than 100 µM; at Papain it was 537 µM; at Cathepsin S, more than 100 µM.
Turning to `CC(C)(C)OC(=O)N[C@@H](Cc1cccs1)C(=O)NCC#N`, the Ki came out at 1.6 µM at Procathepsin L [1], 1.2 µM at Cathepsin K, 0.19 µM on Papain and 0.27 µM on Cathepsin S.
